PMC6271245, “Discovery of Gramine Derivatives That Inhibit the Early Stage of EV71 Replication in Vitro” (Molecules, 2014)
≈ marks a conversion by molar mass, not a printed value.

Columns and labels:
[1] = Cytotoxicity on uninfected RD cells, MTT; type: cell-based; conditions: human, concentration reducing cell viability by 50%
Protocol: Human RD cells and Vero cells were maintained in Dulbecco’s modified Eagle’s medium (Gibco-Invitrogen, Carlsbad, CA, USA) supplemented with 10% fetal bovine serum (FBS; Gibco), 100 U/mL of penicillin and streptomycin, and 2 mM L-glutamine. Enterovirus 71 (EV71) was kindly provided by Zhanqiu Yang (Institute of Medical Virology, School of Medicine, Wuhan University, China) and propagated in RD cell lines. The virus titer was determined by the standard method of median tissue culture infective dose (TCID50) on RD cells.
The activity of compounds against EV71 was determined based on the inhibition of virus-induced cytopathogenicity effects (CPEs) in acutely infected cells. Vero and RD cells grown to 90% confluency in 96-well dishes were washed with phosphate buffered saline (PBS) and infected with 100 TCID50 of EV71 mixed with serial dilutions of tested compounds for 1.5 h at 37 °C. The inoculum was aspirated and cells were incubated with DMEM and test compounds at 37 °C, 5% CO2 for 48 h. The CPEs were observed microscopically and the viability of the cells was determined with a 3-(4,5-dimethylthiazol-2-yl)-2,5-diphenyltetrazolium bromide (MTT) assay. The concentrations required for the test compounds to achieve 50% protection from virus-induced cytopathogenicity (EC50) were determined. Adverse effects of these compounds on the host cells were also assessed by means of the MTT-method; by exposing uninfected cells to various concentrations of test compounds for 48 h at 37 °C, the viability of the cells was detected. The 50% cell cytotoxic concentrations (CC50) of compounds were calculated with the SPSS software (SPSS, Chicago, IL, USA). Selectivity indexes were calculated as the ratio of CC50: EC50.
Cell viability was assessed by an MTT assay, which functions based on the reduction of a MTT into formazan dye by active mitochondria. The cells were treated with 100 µL of MTT (1 mg/mL, Sigma, St. Louis, MO, USA) and incubated at 37 °C for 4 h. The reaction was blocked by DMSO and measured in a microplate reader (Bio-Tek Instruments, Winooski, VT, USA) at 492 nm. The untreated control was arbitrarily set as 100%.

EV71 [2] = test: Direct inactivation of virions (virucidal test), TCID50 titration; type: cell-based, Enterovirus 71; conditions: 10^4 TCID50 EV71 incubated with 20 µg/mL 4a, 40 µg/mL 4i, 80 µg/mL 4r or 4s for 24 h at 4 °C; data not shown
Protocol: Based on structure specificity, antiviral activity, and selectivity therapeutic index, compounds 4a, 4i, 4r and 4s were chosen for further investigation on modes of action against EV71 infection. To determine whether these gramine derivatives inactivated virions directly, 10^4 TCID50 (median tissue culture infective dose) of EV71 suspension was incubated with 20 µg/mL 4a, 40 µg/mL 4i, or 80 µg/mL 4r or 4s for 24 h at 4 °C; subsequently, the virus titers in the mixture were measured by inoculating 100-fold dilution of the mixtures beyond the effective concentrations of the compounds into the host cells. The TCID50 values were calculated by the Reed-Muench method based on the CPE observed on day 2 post inoculation (pi). […] Thus, these compounds appear not to be virucidal for the viruses tested.
The virus suspension, serially diluted 10-fold with DMEM containing 2% FBS, was inoculated to cells in a 96-well plate. After 1 h incubation at 37 °C in 5% CO2, unbinding virus was washed out and MM was added to the cells. After 2 days, the infected cells were monitored for cytopathic effects (CPEs). The virus titer was calculated by the Reed–Muench method.

EV71 [3] = test: Time-of-addition assay, progeny virus yield; type: cell-based, Enterovirus 71; conditions: compound present -1-10 h pi (similar for 0–10 h and 2–10 h); 10 µg/mL 4a, 20 µg/mL 4i, 40 µg/mL 4r or 4s; RD cells; 12 h pi
Protocol: To further understand the mechanisms of these gramine derivatives against EV71 propagation in cells, a time-of-addition experiment was performed. For this experiment, 10 µg/mL 4a, 20 µg/mL 4i, or 40 µg/mL 4r or 4s were added to infected cultures at different time periods (with 2 h intervals) and the reductions in virus yield relative to untreated cultures were determined at 12 h pi. […] With drugs treatments during other periods after EV71 infection, a gradual increase of viral yields was observed, reflecting the loss of the antiviral effects of the compounds. Results from this experiment indicate that these gramine derivatives may exert antiviral effects via the same action mechanism and mainly interfere with the early events of virus replication.
Figure 3 Time-of-addition assay. 10 µg/mL 4a, 20 µg/mL 4i, or 40 µg/mL 4r or 4s were added to RD cells at different time periods after EV71 infection. At 12 h pi, the progeny virus yield was determined (−1–0 h: viral infection period; 0–10 h: period for virus proliferation in the cells). Values are represented as the mean ± standard deviation.
Time-of-addition experiments were carried out, to estimate the point where the compound interfered with the replication cycle of EV71. The RD cells were infected with 100 TCID50 of EV71 and then 10 µg/mL 4a, 20 µg/mL 4i, or 40 µg/mL 4r or 4s was added at different time phases (−1–0 h, 0–10 h, 2–10 h, 4–10 h, 6–10 h, 8–10 h and −1–10 h pi, where −1–0 h is the viral infection period and 0–10 h is the period for virus proliferation in the cells). The cells and supernatants were harvested at […] and subjected to three freeze–thaw cycles, after which the viruses were titered by the Reed-Muench method.

EV71 [4] = test: Analysis of effective stage (treatment before, during or post infection) in RD cells; type: cell-based, Enterovirus 71; conditions: up to a concentration of 40 µg/mL

What does the source list for `c1ccc(C(Nc2ccccn2)c2c[nH]c3ccccc23)cc1` (centres unmarked) [Compound 4a]?
CC50 at 48 h [1]: 17.2 ± 1.6 µg/mL (≈ 57.5 µM); virus titers of mixture with vs without compound (virucidal effect) (EV71 [2]): No significant difference in virus titers; titers of the progeny virus, time of addition (EV71 [3]): strongly reduced

With `Cn1cc(C(Nc2ccccn2)c2ccc(F)cc2)c2ccccc21` (centres unmarked) [Compound 4i] as the molecule, how does the CC50 at 48 h [1] read?
Its CC50 at 48 h is 65.2 ± 7.6 µg/mL (≈ 197 µM).

What about the “virus titers of mixture with vs without compound (virucidal effect)” value (EV71 [2]) of the same molecule?
Its value is “No significant difference in virus titers”.

And the “titers of the progeny virus, time of addition” value (EV71 [3])?
Its value is “strongly reduced”.

Which results are given for `Cn1cc(C(Nc2nc3ccccc3s2)c2ccccc2F)c2ccccc21` (centres unmarked) [Compound 4r]?
CC50 at 48 h [1]: 150 ± 16.2 µg/mL (≈ 387 µM); virus titers of mixture with vs without compound (virucidal effect) (EV71 [2]): No significant difference in virus titers; titers of the progeny virus, time of addition (EV71 [3]): strongly reduced; morphological cytotoxicity (EV71 [4]): no morphological cytotoxicity was observed

With `c1ccc(C(Nc2nc3ccccc3s2)c2c[nH]c3ccccc23)nc1` (centres unmarked) [Compound 4s] as the molecule, how does the CC50 at 48 h [1] read?
The CC50 at 48 h was 137 ± 9.3 µg/mL (≈ 383 µM).

What about the “virus titers of mixture with vs without compound (virucidal effect)” value (EV71 [2]) of the same molecule?
The value was “No significant difference in virus titers”.

And the “titers of the progeny virus, time of addition” value (EV71 [3])?
Its value is “strongly reduced”.

And the morphological cytotoxicity (EV71 [4])?
Its morphological cytotoxicity is “no morphological cytotoxicity was observed”.
